Consider three molecules from ChEMBL document CHEMBL5329194, “Design, Synthesis, and Evaluation of 18F-Labeling CYP1B1 PET Tracer Based on 2-Phenylquinazolin” (Bioorg Med Chem Lett, 2023).

Common to all, as to assay type: ADME
For data set [1], the target named is T1, Cytochrome P450 1A2 (Homo sapiens, UniProt P05177).
T1 sequence (P05177 whole entry): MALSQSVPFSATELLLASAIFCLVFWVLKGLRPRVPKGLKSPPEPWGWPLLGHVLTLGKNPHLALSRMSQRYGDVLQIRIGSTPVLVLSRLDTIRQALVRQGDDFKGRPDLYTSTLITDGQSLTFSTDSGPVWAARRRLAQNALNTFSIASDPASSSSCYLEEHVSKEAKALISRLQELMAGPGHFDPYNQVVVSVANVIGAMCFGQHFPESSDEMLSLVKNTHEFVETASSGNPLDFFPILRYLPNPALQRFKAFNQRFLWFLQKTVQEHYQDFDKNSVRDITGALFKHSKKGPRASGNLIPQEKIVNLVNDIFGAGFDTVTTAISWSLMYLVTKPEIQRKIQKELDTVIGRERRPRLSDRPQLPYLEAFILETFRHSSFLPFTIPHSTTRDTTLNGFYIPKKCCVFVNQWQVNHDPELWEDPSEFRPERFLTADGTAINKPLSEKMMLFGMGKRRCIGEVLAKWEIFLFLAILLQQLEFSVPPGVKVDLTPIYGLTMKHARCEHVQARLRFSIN
In words: Inhibition of CYP1A2 (unknown origin).

Data set [2] concerns CYP1A1 versus CYP1B1. In words: Selectivity ratio of IC50 for inhibition of CYP1A1 (unknown origin) to IC50 for inhibition of CYP1B1 (unknown origin). The following applies: human; read-out: Ratio IC50.
Data set [3] deals with T2, Cytochrome P450 1A1 (Homo sapiens, UniProt P04798).
T2 sequence (P04798 whole entry): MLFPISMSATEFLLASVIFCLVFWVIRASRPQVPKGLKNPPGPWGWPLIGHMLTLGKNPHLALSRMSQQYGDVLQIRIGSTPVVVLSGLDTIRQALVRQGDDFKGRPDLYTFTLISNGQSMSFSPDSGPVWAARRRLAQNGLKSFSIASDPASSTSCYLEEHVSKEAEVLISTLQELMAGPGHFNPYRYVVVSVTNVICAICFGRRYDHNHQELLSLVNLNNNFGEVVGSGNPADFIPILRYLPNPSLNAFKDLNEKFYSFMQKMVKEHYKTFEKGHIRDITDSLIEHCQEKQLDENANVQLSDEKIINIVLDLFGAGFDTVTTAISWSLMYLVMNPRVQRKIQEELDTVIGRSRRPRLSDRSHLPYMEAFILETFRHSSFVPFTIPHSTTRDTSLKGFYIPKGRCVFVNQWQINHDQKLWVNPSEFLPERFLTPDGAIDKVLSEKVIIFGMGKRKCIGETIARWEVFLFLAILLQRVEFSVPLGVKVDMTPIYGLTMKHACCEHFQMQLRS
In words: Inhibition of CYP1A1 (unknown origin).

For data set [4], the target named is T3, Cytochrome P450 1B1 (Homo sapiens, UniProt Q16678).
T3 sequence (Q16678 whole entry): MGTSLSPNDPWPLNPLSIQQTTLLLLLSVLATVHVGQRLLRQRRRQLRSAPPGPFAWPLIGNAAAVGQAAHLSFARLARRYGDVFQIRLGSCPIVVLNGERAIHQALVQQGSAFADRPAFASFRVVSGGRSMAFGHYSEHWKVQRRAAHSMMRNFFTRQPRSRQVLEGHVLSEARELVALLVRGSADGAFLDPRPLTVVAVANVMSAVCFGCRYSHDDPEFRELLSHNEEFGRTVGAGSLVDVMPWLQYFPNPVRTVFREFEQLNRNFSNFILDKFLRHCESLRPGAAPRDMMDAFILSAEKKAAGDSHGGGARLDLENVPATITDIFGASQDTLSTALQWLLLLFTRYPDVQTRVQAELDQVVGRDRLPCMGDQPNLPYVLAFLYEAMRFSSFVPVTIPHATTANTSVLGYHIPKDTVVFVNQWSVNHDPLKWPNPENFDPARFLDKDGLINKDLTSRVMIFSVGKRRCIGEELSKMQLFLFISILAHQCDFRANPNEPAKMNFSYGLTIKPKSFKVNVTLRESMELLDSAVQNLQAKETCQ
In words: Inhibition of CYP1B1 (unknown origin) by EROD assay.

Data set [5] has as its system CYP1A2 versus CYP1B1. In words: Selectivity ratio of IC50 for inhibition of CYP1A2 (unknown origin) to IC50 for inhibition of CYP1B1 (unknown origin). As to conditions: human; read-out: Ratio IC50.

Structures are written as SMILES.

The term IC50 denotes the concentration at which inhibition is half-maximal. A higher IC50 goes with a need for much substance. On to `O=c1[nH]c(-c2ccc(OCCF)cc2)nc2ccccc12`, for which the half-inhibitory concentration (IC50) in data set [1] was greater than 1000 nM; in data set [3] it was greater than 1000 nM; in data set [4], 49.4 nM. For the same molecule, the selectivity ratio in data set [2] and in data set [5] was greater than 20.2 each time.

As for `Oc1nc(-c2ccc(F)cc2)nc2ccccc12`, the IC50 in data set [1], in data set [3] and in data set [4] was greater than 1000 nM throughout.

Take `O=c1cc(-c2ccccc2)oc2c1ccc1ccccc12` [ALPHA-NAPHTHOFLAVONE]: the IC50 in data set [3] came out at 64.2 nM.
